Assay results reported in patent US20070025986A1, “Modulation of HCN channels by second messengers” (priority 2003, published 2007).
Like-named read-outs stand apart in the source and are kept apart here. No end group written: not given here.

Assays:
[1] = system: native pacemaker channels (IH); conditions: cited from earlier work
HCN1 channel = assay: Two microelectrode voltage clamp (2MEV) of HCN1 and HCN1 mutants expressed in Xenopus oocytes; assay type: cell-based, mouse; conditions: forskolin 10 μM, 30 min, SQ-22536 300 μM, 3 hr
HCN1-ΔNvΔC channel = target: T1, HCN1-ΔNvΔC channel (Mus musculus, UniProt O88704, A73M); assay: Excised inside-out patch (IOP) clamp of HCN1-ΔNvΔC and basic-residue alanine mutants with 4,5-PIP2; assay type: biochemical
T1 construct: HCN1-ΔNvΔCterm (amino acid positions 73 to 390 of mHCN1); expressed in transfected cells; host or cells: Xenopus oocytes (cRNA injection); excised inside-out patches
T1 sequence (O88704 73-390 A73M): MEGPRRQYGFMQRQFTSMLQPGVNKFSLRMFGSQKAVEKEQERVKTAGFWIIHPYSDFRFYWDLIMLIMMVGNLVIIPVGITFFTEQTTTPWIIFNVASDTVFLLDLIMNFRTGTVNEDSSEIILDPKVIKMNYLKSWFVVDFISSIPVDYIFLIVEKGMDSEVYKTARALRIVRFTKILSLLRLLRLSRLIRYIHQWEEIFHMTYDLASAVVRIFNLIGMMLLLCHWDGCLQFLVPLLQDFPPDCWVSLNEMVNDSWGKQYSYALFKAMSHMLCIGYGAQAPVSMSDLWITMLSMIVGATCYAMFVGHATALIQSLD
Procedure: Molecular Biology. […] Electrophysiology-General. […] Electrophysiology-Excised cell-free inside-out patch clamp recordings. […] When cAMP was applied, NaCl was replaced with equivalent amount of cAMP. In experiments where 4,5-PIP2, kinase inhibitors or other compounds were included, stock solutions of the compounds dissolved in either DMSO or H2O were added to the recording solutions to an appropriate final concentration. […] It was routinely tested and confirmed that addition of the solvents alone was without effect. Analysis of electrophysiological recordings. […] IOP-clamp was performed to measure the gating activity of the wild type and mutant channels under a “rundown” condition. […] The minimal 4,5-PIP2 responsive mouse HCN1 channel […] of mHCN1), were further mutated to produce the following constructs in which the basic amino acid residues Arginine, Lysine and Histidine are replaced […]), NT2 […], and […]), NT3 […], and […]), NT4 […], and […], and […], and […]), and […]). All individual point mutations were also constructed. The mutants were expressed in Xenopus oocytes. IOP clamp was performed with the mutant channels in the presence and absence of 5 μM 4,5-PIP2. […] Facilitation of HCN channel gating may be effected by direct interaction between 4,5-PIP2 and basic amino acid residues in the cytoplasmic region of the HCN channel. See hypothesis in the legend of FIG. 6.

HCN2-R591E channel = target: T2, HCN2-R591E channel (Mus musculus, UniProt O88703, R591E); assay: Excised inside-out patch (IOP) clamp of HCN2-R591E after rundown, 4,5-PIP2 rescue; assay type: biochemical
T2 construct: expressed in transfected cells; host or cells: Xenopus oocytes (cRNA injection); excised inside-out patches
T2 sequence (O88703 1-863 R591E): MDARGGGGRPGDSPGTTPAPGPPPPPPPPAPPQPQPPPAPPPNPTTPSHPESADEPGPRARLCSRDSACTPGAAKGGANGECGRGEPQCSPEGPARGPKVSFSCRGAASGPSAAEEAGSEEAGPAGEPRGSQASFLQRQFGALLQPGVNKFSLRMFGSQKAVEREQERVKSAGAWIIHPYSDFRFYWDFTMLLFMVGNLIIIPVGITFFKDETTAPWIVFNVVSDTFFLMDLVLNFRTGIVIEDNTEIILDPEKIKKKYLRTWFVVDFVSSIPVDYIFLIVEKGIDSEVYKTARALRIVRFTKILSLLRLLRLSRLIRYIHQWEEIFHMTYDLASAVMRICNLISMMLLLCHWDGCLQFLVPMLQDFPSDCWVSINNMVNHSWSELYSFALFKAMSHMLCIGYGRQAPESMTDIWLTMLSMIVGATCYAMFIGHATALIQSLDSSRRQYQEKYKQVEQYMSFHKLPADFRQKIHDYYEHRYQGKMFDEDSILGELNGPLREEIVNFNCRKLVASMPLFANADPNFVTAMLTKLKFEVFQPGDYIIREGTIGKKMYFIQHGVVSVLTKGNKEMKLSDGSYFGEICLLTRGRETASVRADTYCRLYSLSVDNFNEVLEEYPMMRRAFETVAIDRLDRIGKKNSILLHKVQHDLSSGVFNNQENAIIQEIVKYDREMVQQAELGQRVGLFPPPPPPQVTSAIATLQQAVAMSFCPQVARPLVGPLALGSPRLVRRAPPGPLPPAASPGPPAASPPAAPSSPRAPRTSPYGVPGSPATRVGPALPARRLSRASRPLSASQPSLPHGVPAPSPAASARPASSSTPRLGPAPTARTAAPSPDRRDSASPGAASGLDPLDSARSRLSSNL
Procedure: Molecular Biology. […] Electrophysiology-General. […] Electrophysiology-Excised cell-free inside-out patch clamp recordings. […] When cAMP was applied, NaCl was replaced with equivalent amount of cAMP. In experiments where 4,5-PIP2, kinase inhibitors or other compounds were included, stock solutions of the compounds dissolved in either DMSO or H2O were added to the recording solutions to an appropriate final concentration. […] It was routinely tested and confirmed that addition of the solvents alone was without effect. Analysis of electrophysiological recordings. […] An HCN2-[…] construct was expressed in Xenopus oocytes. 2 MEV-clamp recording was performed to measure the gating activity of the HCN2-[…] channel in the intact Xenopus oocytes. IOP-clamp was performed to measure the gating activity of the HCN2-[…] channel under a “rundown” condition. IOP-clamp was also performed in the presence of 4,5-PIP2 to detect the effect of 4,5-PIP2 on the gating activity of the HCN2-[…] channel under a “rundown” condition.

[2] = ADn: Thalamic anterior dorsal relay neurons
[3] = CP: Cerebellar purkinje neurons
[4] = DRG: Dorsal root ganglion neurons
[5] = CA1: CA1 pyramidal neurons or unidentified CA1 cells
[6] = ORN: Olfactory receptor neurons
[7] = MTNB: medial nucleus of the trapezoid body
[8] = SO: CA1 stratum oriens-alveus interneuron

NCCc1c[nH]c2ccc(O)cc12 [5-HT]
Δ V1/2 [1, 2]: +15 mV | Δ V1/2 ([1]; BSMN: Brainstem motor neurons): +6 mV BSMN | Δ IMAX ([1]; CMN: crustacean motor neurons): +20% | Δ V1/2 ([1]; CMN: crustacean motor neurons): +10 mV | Δ V1/2 [1, 3]: −8 mV | Δ V1/2 [1, 4]: +6 mV | Δ IMAX ([1]; FM: Facial motor neurons): +25% | Δ IMAX ([1]; PH: Prepositus Hyperglossi neurons): +30% | Δ IMAX ([1]; ST: Solitary tract neurons): +100% ST | Δ IMAX ([1]; TR: thalamic relay): +20% | Δ V1/2 ([1]; TR: thalamic relay): +5 mV | Δ V1/2 ([1]; VT: Ventral tegmental neurons): −7 m

NCCc1c[nH]c2ccc(C(N)=O)cc12 [5CT]
Δ V1/2 [1, 2]: +15 mV | Δ IMAX [1, 5]: +50% | Δ V1/2 [1, 5]: +5 mV CA1 | Δ V1/2 [1, 4]: +6 mV

CCCN(CCC)C1CCc2cccc(O)c2C1 (stereo not shown) [8-OH-DPAT]
Δ IMAX ([1]; ST: Solitary tract neurons): +100% ST

Nc1ncnc2c1ncn2[C@@H]1O[C@H](CO)[C@@H](O)[C@H]1O [Adenosine]
Δ V1/2 [1, 4]: −7 mV | Δ V1/2 ([1]; SA: sinoatrial node): −6 mV

NCC(CC(=O)O)c1ccc(Cl)cc1 (stereo not shown) [Baclofen]
Δ IMAX ([1]; SNZC: Substantia nigra zona compacta): −11% | Δ IMAX ([1]; VT: Ventral tegmental neurons): −20%

Clc1cccc(Cl)c1N=C1NCCN1 [Clonidine]
Δ IMAX [1, 4]: HG, −40% DRG | Δ V1/2 ([1]; HG: Hypoglossal motor neurons): −4 mV HG

COc1cc(CC(C)N)c(OC)cc1I (stereo not shown) [DOI]
Δ V1/2 [1, 3]: −8 mV | Δ IMAX ([1]; FM: Facial motor neurons): +25% | Δ V1/2 ([1]; VT: Ventral tegmental neurons): −7 m

NCCc1ccc(O)c(O)c1 [Dopamine]
Δ IMAX [1, 6]: −50% | Δ V1/2 [1, 6]: −9 mV | Δ V1/2 ([1]; PG: Pyloric ganglion motor neurons): +20 mV PG | Δ IMAX ([1]; ROD: Rod photoreceptors): −30% ROD | Δ V1/2 ([1]; ROD: Rod photoreceptors): −17 mV | Δ IMAX ([1]; VT: Ventral tegmental neurons): −20%

CC(C)NCC(O)c1ccc(O)c(O)c1 (stereo not shown) [Isoproterenol]
Δ IMAX ([1]; AT: atrial myocyte): +90% | Δ V1/2 ([1]; AT: atrial myocyte): +11 mV | Δ V1/2 ([1]; BC: cerebllar basket cell): +6 mV | Δ IMAX ([1]; ECM: Embryonic cardiomyocytes): +65% | Δ V1/2 [1, 7]: +12 mV | Δ IMAX [1, 8]: +30% | Δ IMAX ([1]; TR: thalamic relay): ECM; +31% TR; BC; | Δ V1/2 ([1]; TR: thalamic relay): +5 mV

OC[C@H]1O[C@@H](n2cnc3c(NC4CCCCC4)ncnc32)[C@H](O)[C@@H]1O [N6-CHA]
Δ V1/2 [1, 4]: −7 mV | Δ V1/2 ([1]; SA: sinoatrial node): −6 mV

OC[C@H]1O[C@@H](n2cnc3c(NC4CCCC4)ncnc32)[C@H](O)[C@@H]1O [N6-CPA]
Δ V1/2 [1, 4]: −7 mV | Δ V1/2 ([1]; SA: sinoatrial node): −6 mV

NC[C@H](O)c1ccc(O)c(O)c1 [NorE]
Δ IMAX ([1]; AT: atrial myocyte): +90% | Δ V1/2 ([1]; AT: atrial myocyte): +11 mV | Δ V1/2 ([1]; BC: cerebllar basket cell): +6 mV | Δ IMAX ([1]; ECM: Embryonic cardiomyocytes): +65% | Δ V1/2 [1, 7]: +12 mV | Δ IMAX [1, 8]: +30% | Δ IMAX ([1]; TR: thalamic relay): ECM; +31% TR; BC; | Δ V1/2 ([1]; TR: thalamic relay): +5 mV

CCCCCCCC/C=C/CCCCCCCC(=O)OCC(CO)OC(C)=O (stereo not shown) [OAG]
Δ IMAX ([1]; SNPC: Substantia nigra pars compacta): −49% SNPC

CCCCC[C@H](O)/C=C/[C@H]1[C@H](O)CC(=O)[C@@H]1C/C=C\CCCC(=O)O [PGE2]
Δ IMAX ([1]; NG: Nodose ganglion): +18% NG, TG | Δ V1/2 ([1]; NG: Nodose ganglion): +6 mV NG, TG | Δ IMAX ([1]; TG: Trigeminal ganglion): +18% NG, TG | Δ V1/2 ([1]; TG: Trigeminal ganglion): +6 mV NG, TG

Nc1ncnc2c1ncn2C1CCCO1 (stereo not shown) [SQ-22536]
Effect on gating (HCN1 channel; HCN1-R538E): not altered | Effect on V1/2 of activation (HCN1 channel; wild type HCN1): inhibited

C[N+](C)(C)CCOC(N)=O [carbachol]
Δ IMAX ([1]; ECM: Embryonic cardiomyocytes): −41% | Δ IMAX ([1]; LGN): CA1; +43% LGN | Δ V1/2 ([1]; LGN): CA1; +5 mV LGN | Δ V1/2 ([1]; PF: cardiac purkinje fibre): −8 mV SA, PF | Δ V1/2 ([1]; SA: sinoatrial node): −8 mV SA, PF

AT-II: agonist listed for angiotensin AT½ receptor (DRVYIHPF; Angiotensin-2; UniProt P01019 25-32, looked up)
Δ V1/2 ([1]; PVN: Hypothalamic paraventricular neurons): +8m PVN

EGF: agonist listed for EGF receptor
Δ IMAX ([1]; SA: sinoatrial node): +23% SA

PACAP38: agonist listed for PAC1 receptor (HSDGIFTDSYSRYRKQMAVKKYLAAVLGKRYKQRVKNK; ends and bridges not checked; UniProt P18509 132-169, looked up)
Δ IMAX ([1]; TR: thalamic relay): +30% TR | Δ V1/2 ([1]; TR: thalamic relay): +7 mV TR

Phosphatidyl-inositol 4,5-bisphosphate [4,5-PIP2]
Effect on gating of rundown channels (HCN1-ΔNvΔC channel; HCN1-ΔNvΔC, 5 uM 4,5-PIP2, 5 min): redepolarizes gating | Response to 4,5-PIP2 facilitation of channel gating (HCN1-ΔNvΔC channel; mutants NT1, NT2 and NT3 of HCN1-ΔNvΔCterm, 5 μM 4,5-PIP2): reduced response | Response (difference in V1/2) to 4,5-PIP2 versus wild type (HCN1-ΔNvΔC channel; mutants R59A, S23-3A, R112A, S45-3A of HCN1-ΔNvΔC, 5 uM 4,5-PIP2): not different from wild type | Effect on gating activity under rundown condition (HCN2-R591E channel; IOP-clamp): restore the gating activity | Effect on gating slope (HCN2-R591E channel; IOP-clamp after rundown): restores the more shallow gating slope | Mean shift in V1/2 contributed by 4,5-PIP2 to intact cell gating (HCN2-R591E channel; IOP-clamp after rundown): ~20 mV

Sub P: agonist listed for tachykinin NK 1/2/3 receptor (RPKPQQFFGLM; ends and bridges not checked; UniProt P20366 58-68, looked up)
Δ V1/2 ([1]; NG: Nodose ganglion): −20 mV. NG

VIP: agonist listed for PAC1 receptor (HSDAVFTDNYTRLRKQMAVKKYLNSILN; ends and bridges not checked; UniProt P01282 125-152, looked up)
Δ IMAX ([1]; TR: thalamic relay): +30% TR | Δ V1/2 ([1]; TR: thalamic relay): +7 mV TR

B1: BDNF: neurotrophin, agonist listed for TrkA/B/C, P75 (protein, UniProt P23560 19-247, looked up)
Neurotrophic factor BDNF …: APMKEANIRGQGGLAYPGVRTHGTLESVNGPKAGSRGLTSLADTFEHVIEELLDEDQKVRPNEENNKDADLYTSRVMLSSQVPLEPPLLFLLEEYKNYLDAANMSMRVRRHSDPARRGELSVCDSISEWVTAADKKTAVDMSGGTVTVLEKVPVSKGQLKQYFYETKCNPMGYTKEGCRGIDKRHWNSQCRTTQSYVRALTMDSKKRIGWRFIRIDTSCVCTLTIKRGR
Δ IMAX ([1]; PBC: Pre-botzinger complex): −46% PBC | Δ V1/2 ([1]; PBC: Pre-botzinger complex): −17 mV PBC
